Key:
Assay type in all cases: cell-based, human
[1] = system: A549; assay: Cell-growth inhibition (CellTiter); settings: A549, 3 days; read-out: Cell Growth Inhibition GI50 ± SE
Method: (§1) Inhibition of cell growth was determined by using standard procedures. Cell lines were obtained from the NCI anticancer drug screen and maintained in DMEM medium supplemented with 10% fetal bovine serum. Growing cells were exposed to serial dilutions of each compound for 3 days. Cell growth was determined with CellTiter Assay Reagent (Promega), and growth parameters, including inhibition of growth, were measured by using the methods specified by the manufacturer.

[2] = system: PC3; assay: Cell-growth inhibition (CellTiter); settings: PC3, 3 days; read-out: Cell Growth Inhibition GI50 ± SE
Method: as §1

[3] = system: M14; assay: Cell-growth inhibition (CellTiter); settings: M14, 3 days; read-out: Cell Growth Inhibition GI50 ± SE
Method: as §1

[4] = system: MCF7
Method: (§2) (aR)-6, (aS)-6, (aS)-iso -6, and (aR)-iso -6 were submitted to the 60 Cell Screen panel and evaluated at 5 doses (100 μM, 10 μM, 1 μM, 0.1 μM, and 0.01 μM). […] The complete report from this submission is available at the publisher’s Web site as a separate Supporting Information file. For COMPARE analysis, TGI levels of response for (aR)-DM-MTC (6) and (aS)-iso-DM-MTC were compared to those of several established tubulin inhibitors previously tested in the NCI-60 screen.

[5] = system: NCI-H460
Method: as §2

[6] = system: A549/ATCC
Method: as §2

[7] = system: SN12C
Method: as §2

[8] = system: MDA-MB-468
Method: as §2

[9] = system: A498
Method: as §2

[10] = system: EKVX
Method: as §2

[11] = system: HOP-92
Method: as §2

[12] = system: ACHN
Method: as §2

[13] = system: MALME-3M
Method: as §2

[14] = system: SK-MEL-28
Method: as §2

[15] = system: HT29
Method: as §2

[16] = system: OVCAR-4
Method: as §2

[17] = system: PC-3
Method: as §2

[18] = system: HOP-62
Method: as §2

[19] = system: SK-OV-3
Method: as §2

[20] = system: NCI 60 cell lines
Method: as §2

[21] = system: HCT-116
Method: as §2

[22] = system: NCI-H522
Method: as §2

[23] = system: HL-60(TB)
Method: as §2

[24] = system: SK-MEL-2
Method: as §2

[25] = system: COLO 205
Method: as §2

[26] = system: IGROV1
Method: as §2

COc1cc(C)c(-c2ccc(=O)c(OC)cc2C)c(OC)c1OC (single isomer, unassigned) [(aR)-iso-6]
GI50 [1]: > 20 µM | GI50 [2]: > 20 µM | GI50 [3]: > 20 µM | Log10GI50 [4]: > -4.00 Molar | Log10LC50 [4]: > -4.00 Molar | Log10TGI [4]: > -4.00 Molar | Log10GI50 [5]: > -4.00 Molar | Log10LC50 [5]: > -4.00 Molar | Log10TGI [5]: > -4.00 Molar | Log10GI50 [6]: > -4.00 Molar | Log10LC50 [6]: > -4.00 Molar | Log10TGI [6]: > -4.00 Molar | Log10GI50 [7]: > -4.00 Molar | Log10LC50 [7]: > -4.00 Molar | Log10TGI [7]: > -4.00 Molar | Log10GI50 [8]: > -4.00 Molar | Log10LC50 [8]: > -4.00 Molar | Log10TGI [8]: > -4.00 Molar | Log10GI50 [9]: > -4.00 Molar | Log10LC50 [9]: > -4.00 Molar | Log10TGI [9]: > -4.00 Molar | Log10GI50 [10]: > -4.00 Molar | Log10LC50 [10]: > -4.00 Molar | Log10TGI [10]: > -4.00 Molar | Log10GI50 [11]: > -4.00 Molar | Log10LC50 [11]: > -4.00 Molar | Log10TGI [11]: > -4.00 Molar | Log10GI50 [12]: > -4.00 Molar | Log10LC50 [12]: > -4.00 Molar | Log10TGI [12]: > -4.00 Molar | Log10GI50 [13]: > -4.00 Molar | Log10LC50 [13]: > -4.00 Molar | Log10TGI [13]: > -4.00 Molar | Log10GI50 [14]: > -4.00 Molar | Log10LC50 [14]: > -4.00 Molar | Log10TGI [14]: > -4.00 Molar | Log10GI50 [15]: > -4.00 Molar | Log10LC50 [15]: > -4.00 Molar | Log10TGI [15]: > -4.00 Molar | Log10GI50 [16]: > -4.00 Molar | Log10LC50 [16]: > -4.00 Molar | Log10TGI [16]: > -4.00 Molar | Log10GI50 [17]: > -4.00 Molar | Log10LC50 [17]: > -4.00 Molar | Log10TGI [17]: > -4.00 Molar | Log10GI50 [18]: > -4.00 Molar | Log10LC50 [18]: > -4.00 Molar | Log10TGI [18]: > -4.00 Molar | Log10GI50 [19]: > -4.00 Molar | Log10LC50 [19]: > -4.00 Molar | Log10TGI [19]: > -4.00 Molar | cytotoxicity at the highest concentration tested ([20]; 100 μM): not cytotoxic | Log10 Range at TGI ([20]; NCI-60 cell line selectivity): 0 | GI50 ([20]; NCI-60 mean): > 100 µM | Mean TGI ([20]; NCI-60 mean total growth inhibition): > 100 µM | Delta Log10LC50 ([20]; mean graph): 0 | Delta Log10TGI ([20]; mean graph): 0 | _MID Log10GI50 ([20]; mean graph midpoint): -4.01 Molar | _MID Log10LC50 ([20]; mean graph midpoint): -4.0 Molar | _MID Log10TGI ([20]; mean graph midpoint): -4.0 Molar | Log10GI50 [21]: > -4.00 Molar | Log10LC50 [21]: > -4.00 Molar | Log10TGI [21]: > -4.00 Molar | Log10GI50 [22]: > -4.00 Molar | Log10LC50 [22]: > -4.00 Molar | Log10TGI [22]: > -4.00 Molar | Log10GI50 [23]: > -4.00 Molar | Log10LC50 [23]: > -4.00 Molar | Log10TGI [23]: > -4.00 Molar | Log10GI50 [24]: > -4.00 Molar | Log10LC50 [24]: > -4.00 Molar | Log10TGI [24]: > -4.00 Molar | Log10GI50 [25]: > -4.00 Molar | Log10LC50 [25]: > -4.00 Molar | Log10TGI [25]: > -4.00 Molar | Log10GI50 [26]: > -4.00 Molar | Log10LC50 [26]: > -4.00 Molar | Log10TGI [26]: > -4.00 Molar

Reference: paper PMC12150326 (The Journal of Organic Chemistry, 2025)
